Where “and” joins values, the source holds several entries; their conditions need not be identical. Equal values may be shown once. Toxic doses and inconclusive results are not listed.
Test system: L1210 leukemia ip in BDF1 mice, survival T/C
Experiment: NCI In Vivo Anticancer Drug Screen. Data for tumor model L1210 Leukemia (intraperitoneal) in B6D2F1 (BDF1) mice
Settings: higher = longer survival
Outline: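 Ratio derived from survival: compound-dosed mice over vehicle-dosed mice, all bearing a transplantable tumor.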

[1] = endpoint: mean survival time, dose: 100.0 mg/kg/injection, schedule: Q01DX009 (ip), vehicle: Klucel (hydroxypropylcellulose) (HPC)

Q: What does the source list for `N/C(=N\O)c1cn(C2OC(CO)C(O)C2O)c2ncnc(N)c12` (stereo unspecified)?
A: T/C (endpoint: mean survival time, dose: 0.2 mg/kg/injection, schedule: Q01DX015 (ip), vehicle: carboxymethylcellulose (CMC)): 104 % of control; T/C (endpoint: mean survival time, dose: 0.25 mg/kg/injection, schedule: Q01DX009 (ip), vehicle: saline): 117 % of control; T/C (endpoint: mean survival time, dose: 0.25 mg/kg/injection, schedule: Q03HX024 (ip), vehicle: saline): 123 % of control; T/C (endpoint: mean survival time, dose: 0.3 mg/kg/injection, schedule: Q01DX015 (ip), vehicle: carboxymethylcellulose (CMC)): 117 % of control; T/C (endpoint: mean survival time, dose: 0.39 mg/kg/injection, schedule: Q01DX009 (ip), vehicle: saline): 150 % of control; T/C (endpoint: mean survival time, dose: 0.44 mg/kg/injection, schedule: Q01DX015 (ip), vehicle: carboxymethylcellulose (CMC)): 117 % of control; T/C (endpoint: mean survival time, dose: 0.5 mg/kg/injection, schedule: Q01DX005 (ip), vehicle: saline): 118 % of control; T/C (endpoint: mean survival time, dose: 0.67 mg/kg/injection, schedule: Q01DX015 (ip), vehicle: carboxymethylcellulose (CMC)): 120 % of control; T/C (endpoint: mean survival time, dose: 0.78 mg/kg/injection, schedule: Q01DX005 (ip), vehicle: saline): 111 % of control; T/C (endpoint: mean survival time, dose: 0.78 mg/kg/injection, schedule: Q01DX009 (ip), vehicle: saline): 150 % of control; T/C (endpoint: mean survival time, dose: 1.0 mg/kg/injection, schedule: Q03HX008 (ip), vehicle: saline): 160 % of control; T/C (endpoint: mean survival time, dose: 1.0 mg/kg/injection, schedule: Q03HX024 (ip), vehicle: saline): 192 % of control; T/C (endpoint: mean survival time, dose: 1.3 mg/kg/injection, schedule: Q01DX009 (ip), vehicle: saline): 159 % of control; T/C (endpoint: mean survival time, dose: 1.56 mg/kg/injection, schedule: Q01DX005 (ip), vehicle: saline): 110 % of control; T/C (endpoint: mean survival time, dose: 1.56 mg/kg/injection, schedule: Q01DX009 (ip), vehicle: saline): 204 % of control; T/C (endpoint: mean survival time, dose: 2.0 mg/kg/injection, schedule: Q01DX009 (ip), vehicle: saline): 158 % of control; T/C (endpoint: mean survival time, dose: 2.0 mg/kg/injection, schedule: Q03HX024 (ip), vehicle: saline): 102 % of control and 107 % of control; T/C (endpoint: mean survival time, dose: 3.0 mg/kg/injection, schedule: Q01DX009 (ip), vehicle: saline): 151 % of control; T/C (endpoint: mean survival time, dose: 3.12 mg/kg/injection, schedule: Q01DX001 (ip), vehicle: other): 121 % of control; T/C (endpoint: mean survival time, dose: 3.12 mg/kg/injection, schedule: Q01DX005 (ip), vehicle: saline): 156 % of control; T/C (endpoint: mean survival time, dose: 3.12 mg/kg/injection, schedule: Q01DX009 (ip), vehicle: saline): 109 % of control; T/C (endpoint: mean survival time, dose: 3.13 mg/kg/injection, schedule: Q01DX001 (ip), vehicle: water): 121 % of control; T/C (endpoint: mean survival time, dose: 4.0 mg/kg/injection, schedule: Q01DX001 (ip), vehicle: saline): 117 % of control; T/C (endpoint: mean survival time, dose: 4.0 mg/kg/injection, schedule: Q01DX005 (ip), vehicle: saline): 152 % of control; T/C (endpoint: mean survival time, dose: 4.0 mg/kg/injection, schedule: Q01DX009 (ip), vehicle: saline): 153 % of control and 180 % of control; T/C (endpoint: mean survival time, dose: 4.0 mg/kg/injection, schedule: Q01DX009 (oral), vehicle: saline): 96 % of control; T/C (endpoint: mean survival time, dose: 4.0 mg/kg/injection, schedule: Q08DX002 (ip), vehicle: saline): 122 % of control; T/C (endpoint: mean survival time, dose: 4.4 mg/kg/injection, schedule: Q01DX001 (ip), vehicle: carboxymethylcellulose (CMC)): 124 % of control; T/C (endpoint: mean survival time, dose: 5.0 mg/kg/injection, schedule: Q01DX001 (ip), vehicle: carboxymethylcellulose (CMC)): 124 % of control; T/C (endpoint: mean survival time, dose: 5.0 mg/kg/injection, schedule: Q01DX009 (ip), vehicle: saline): 158 % of control; T/C (endpoint: mean survival time, dose: 5.0 mg/kg/injection, schedule: Q01DX015 (ip), vehicle: carboxymethylcellulose (CMC)): 108 % of control; T/C (endpoint: mean survival time, dose: 6.25 mg/kg/injection, schedule: Q01DX001 (ip), vehicle: other): 122 % of control; T/C (endpoint: mean survival time, dose: 6.25 mg/kg/injection, schedule: Q01DX001 (ip), vehicle: water): 114 % of control; T/C (endpoint: mean survival time, dose: 6.25 mg/kg/injection, schedule: Q01DX009 (ip), vehicle: saline): 113 % of control; T/C (endpoint: mean survival time, dose: 8.0 mg/kg/injection, schedule: Q01DX001 (ip), vehicle: saline): 124 % of control; T/C (endpoint: mean survival time, dose: 8.0 mg/kg/injection, schedule: Q01DX005 (ip), vehicle: saline): 150 % of control; T/C (endpoint: mean survival time, dose: 8.0 mg/kg/injection, schedule: Q01DX009 (ip), vehicle: saline): 119 % of control and 121 % of control; T/C (endpoint: mean survival time, dose: 8.0 mg/kg/injection, schedule: Q01DX009 (oral), vehicle: saline): 95 % of control; T/C (endpoint: mean survival time, dose: 8.0 mg/kg/injection, schedule: Q04DX003 (ip), vehicle: saline): 151 % of control and 156 % of control; T/C (endpoint: mean survival time, dose: 16.0 mg/kg/injection, schedule: Q01DX001 (ip), vehicle: saline): 119 % of control; T/C (endpoint: mean survival time, dose: 16.0 mg/kg/injection, schedule: Q01DX001 (oral), vehicle: saline): 94 % of control; T/C (endpoint: mean survival time, dose: 16.0 mg/kg/injection, schedule: Q01DX009 (oral), vehicle: saline): 95 % of control; T/C (endpoint: mean survival time, dose: 16.0 mg/kg/injection, schedule: Q04DX003 (ip), vehicle: saline): 186 % of control; T/C (endpoint: mean survival time, dose: 22.5 mg/kg/injection, schedule: Q01DX001 (ip), vehicle: saline): 151 % of control; T/C (endpoint: mean survival time, dose: 25.0 mg/kg/injection, schedule: Q01DX001 (ip), vehicle: other): 157 % of control; T/C (endpoint: mean survival time, dose: 25.0 mg/kg/injection, schedule: Q01DX001 (ip), vehicle: water): 152 % of control; T/C (endpoint: mean survival time, dose: 32.0 mg/kg/injection, schedule: Q01DX001 (oral), vehicle: saline): 97 % of control; T/C (endpoint: mean survival time, dose: 32.0 mg/kg/injection, schedule: Q01DX009 (oral), vehicle: saline): 94 % of control; T/C (endpoint: mean survival time, dose: 32.0 mg/kg/injection, schedule: Q08DX002 (ip), vehicle: saline): 154 % of control; T/C (endpoint: mean survival time, dose: 50.0 mg/kg/injection, schedule: Q01DX001 (ip), vehicle: other): 150 % of control; T/C (endpoint: mean survival time, dose: 50.0 mg/kg/injection, schedule: Q01DX001 (ip), vehicle: water): 159 % of control; T/C (endpoint: mean survival time, dose: 64.0 mg/kg/injection, schedule: Q01DX001 (oral), vehicle: saline): 94 % of control; T/C (endpoint: mean survival time, dose: 128.0 mg/kg/injection, schedule: Q01DX001 (oral), vehicle: saline): 90 % of control; T/C (endpoint: median survival time, dose: 0.5 mg/kg/injection, schedule: Q01DX009 (ip), vehicle: saline): 118 % of control and 122 % of control; T/C (endpoint: median survival time, dose: 1.0 mg/kg/injection, schedule: Q01DX009 (ip), vehicle: saline): 122 % of control

Q: How did the T/C (endpoint: mean survival time, dose: 50.0 mg/kg/injection, schedule: Q01DX001 (ip), vehicle: carboxymethylcellulose (CMC)) turn out when `Fc1cc(N(CCCl)CCCl)ccc1CN1CCCN(Cc2ccc(N(CCCl)CCCl)cc2F)C1c1ccc(N(CCCl)CCCl)cc1Cl` was run?
A: Its T/C is 105 % of control.

Q: What about the T/C (endpoint: mean survival time, dose: 100.0 mg/kg/injection, schedule: Q01DX001 (ip), vehicle: carboxymethylcellulose (CMC)) of the same molecule?
A: Its T/C is 96 % of control.

Q: What about the T/C (endpoint: mean survival time, dose: 200.0 mg/kg/injection, schedule: Q01DX001 (ip), vehicle: carboxymethylcellulose (CMC)) of the same molecule?
A: The T/C was 100 % of control.

Q: And the T/C (endpoint: mean survival time, dose: 400.0 mg/kg/injection, schedule: Q01DX001 (ip), vehicle: carboxymethylcellulose (CMC))?
A: Its T/C is 102 % of control.

Q: With `CCOC(OC(C)=O)OC(C)=O` as the molecule, how does the T/C (endpoint: mean survival time, dose: 100.0 mg/kg/injection, schedule: Q04DX003 (ip), vehicle: saline) read?
A: Its T/C is 87 % of control.

Q: What about the T/C (endpoint: mean survival time, dose: 200.0 mg/kg/injection, schedule: Q04DX003 (ip), vehicle: saline) of the same molecule?
A: The T/C was 101 % of control.

Q: And the T/C (endpoint: mean survival time, dose: 400.0 mg/kg/injection, schedule: Q04DX003 (ip), vehicle: saline)?
A: The T/C was 97 % of control.

Q: What does the source list for `CCCCC1=C(c2ccccc2)C(=O)OC1=O`?
A: T/C [1]: 95 % of control; T/C (endpoint: mean survival time, dose: 100.0 mg/kg/injection, schedule: Q04DX003 (ip), vehicle: Klucel (hydroxypropylcellulose) (HPC)): 88 % of control; T/C (endpoint: mean survival time, dose: 200.0 mg/kg/injection, schedule: Q01DX009 (ip), vehicle: Klucel (hydroxypropylcellulose) (HPC)): 95 % of control; T/C (endpoint: mean survival time, dose: 200.0 mg/kg/injection, schedule: Q04DX003 (ip), vehicle: Klucel (hydroxypropylcellulose) (HPC)): 98 % of control; T/C (endpoint: mean survival time, dose: 400.0 mg/kg/injection, schedule: Q01DX009 (ip), vehicle: Klucel (hydroxypropylcellulose) (HPC)): 100 % of control; T/C (endpoint: mean survival time, dose: 400.0 mg/kg/injection, schedule: Q04DX003 (ip), vehicle: Klucel (hydroxypropylcellulose) (HPC)): 89 % of control

Q: How did the T/C (endpoint: mean survival time, dose: 100.0 mg/kg/injection, schedule: Q01DX001 (ip), vehicle: saline) turn out when `NC(=O)C1C(=O)OC2(CCCCC2)C1c1ccccc1` (stereo unspecified) was run?
A: Its T/C is 89 % of control.

Q: What about the T/C (endpoint: mean survival time, dose: 200.0 mg/kg/injection, schedule: Q01DX001 (ip), vehicle: saline) of the same molecule?
A: Its T/C is 87 % of control.

Q: What about the T/C (endpoint: mean survival time, dose: 400.0 mg/kg/injection, schedule: Q01DX001 (ip), vehicle: saline) of the same molecule?
A: Its T/C is 94 % of control.

Q: How did the T/C (endpoint: mean survival time, dose: 50.0 mg/kg/injection, schedule: Q01DX009 (ip), vehicle: Klucel (hydroxypropylcellulose) (HPC)) turn out when `O=C(O)c1ccc(CO)o1` was run?
A: Its T/C is 107 % of control.

Q: And the T/C [1]?
A: The T/C was 93 % of control.

Q: How did the T/C (endpoint: mean survival time, dose: 100.0 mg/kg/injection, schedule: Q01DX009 (ip), vehicle: saline with Tween-80) turn out when `CC(CP(=O)(c1ccccc1)c1ccccc1)C(=O)O` (stereo unspecified) was run?
A: Its T/C is 98 % of control.

Q: What about the T/C (endpoint: mean survival time, dose: 200.0 mg/kg/injection, schedule: Q01DX009 (ip), vehicle: saline with Tween-80) of the same molecule?
A: The T/C was 97 % of control.

Q: What about the T/C (endpoint: mean survival time, dose: 400.0 mg/kg/injection, schedule: Q01DX009 (ip), vehicle: saline with Tween-80) of the same molecule?
A: The T/C was 98 % of control.

Q: Which T/C (endpoint: mean survival time, dose: 12.5 mg/kg/injection, schedule: Q01DX009 (ip), vehicle: saline) does the source give for `CC1(C)N=C(N)N=C(N)N1c1cccc(CC(=O)Nc2ccccc2)c1` here?
A: Its T/C is 102 % of control.

Q: What about the T/C (endpoint: mean survival time, dose: 25.0 mg/kg/injection, schedule: Q01DX009 (ip), vehicle: saline) of the same molecule?
A: Its T/C is 98 % of control.

Q: And the T/C (endpoint: mean survival time, dose: 50.0 mg/kg/injection, schedule: Q01DX009 (ip), vehicle: saline)?
A: Its T/C is 102 % of control.

Q: What about the T/C (endpoint: mean survival time, dose: 100.0 mg/kg/injection, schedule: Q01DX009 (ip), vehicle: saline) of the same molecule?
A: The T/C was 96 % of control.

Q: And the T/C (endpoint: mean survival time, dose: 200.0 mg/kg/injection, schedule: Q01DX009 (ip), vehicle: saline)?
A: Its T/C is 98 % of control.
